Assay results taken from patent US5663205A, “Pharmaceutical composition for use in glaucoma treatment” (Senju Pharmaceutical Co. Ltd., priority 1992, dated 1997).

Legend:
[1] = system: Hypertensive Intraocular Pressure Induced by Water Loading; assay: Test Example 4: hypertensive intraocular pressure induced by water loading, white rabbits; type: in vivo; conditions: 0.5% aqueous solution
Experimental: Intraocular Pressure Reducing Activity of 0.5% Aqueous Solution of Amosulalol Hydrochloride on Hypertensive Itraocular Pressure Induced by Water Loading White Rabbits
With 5 male white rabbits weighing about 2 kg used as test animals, 50 μl of 0.5% aqueous solution of amosulalol hydrochloride was applied to one eye of each rabbit, with 50 μl of physiological saline being given to the other, and drinking water, 60 ml/kg (37° C.) was loaded by means of an oral probe 30 min later. Intraocular pressure was measured for both eyes using PTG before instillation as well as before water loading and 0.5, 1, 2 and 4 hours after the same.
FIG. 6 is a graph showing the intraocular pressure reducing activity of 0.5% aqueous solution of amosulalol hydrochloride on hypertensive intraocular pressure induced by water loading in white rabbits with time (hour) after instillation taken as abscissa and intraocular pressure (mmHg) as ordinate; each value in mean ± S.E. (number of cases is […]).

[2] = Stability of aqueous solution against heat and light; type: physicochemical
[3] = Test Example 6: freeze-thaw test, precipitation of crystals; type: physicochemical; conditions: 0.5% aqueous solution (pH 5.5), left standing at room temperature
Experimental: Investigation on the Processing of Amosulalol Hydrochloride into Ophthalmic Solution: Freeze-Thaw Test (Investigation on a Stabilizing Agent for the Ophthalmic Solution of Amosulalol Hydrochloride)
Consequently, investigation was conducted on a stabilizing agent intended for use in the case of such freezing.
0.5% aqueous solution of amosulalol hydrochloride (pH 5.5), after being admixed with each of the stabilizing agents (Nos. 1 to 5) as described in Table 1 shown below, was filled into a glass ampoule of 5 ml capacity, frozen at -30° C. and left standing at room temperature to conduct inspection for the presence of crystals in it.

COc1ccccc1OCCNCC(O)c1ccc(C)c(S(N)(=O)=O)c1.Cl (stereo not shown) [amosulalol hydrochloride, 5-[1-hydroxy-2-[2-(2-methoxyphenoxy)ethylamino]ethyl]-2-methylbenzenesulfonamide hydrochloride]
increase in intraocular pressure after water loading ([1]; 30 min after water loading, physiological saline 8.7 mmHg): 3.4 mmHg
effect on increase in intraocular pressure compared with physiological saline ([1]; water loading): significantly reduced the increase in intraocular pressure
stability against heat and light [2]: stable
dissolution of crystals after freezing [3]: did not allow the crystals to dissolve
